Consider ten molecules from publication PMC11528044 (Nature Communications, 2024).

Read-outs that look alike come from different tables or passages of the source. Marks after values point to notes of the source that are not given here.

The target of assay [1] is T1, LdCYP5122A1 (Leishmania donovani, UniProt A0A3S7X0B6).
T1 sequence (A0A3S7X0B6 61-592): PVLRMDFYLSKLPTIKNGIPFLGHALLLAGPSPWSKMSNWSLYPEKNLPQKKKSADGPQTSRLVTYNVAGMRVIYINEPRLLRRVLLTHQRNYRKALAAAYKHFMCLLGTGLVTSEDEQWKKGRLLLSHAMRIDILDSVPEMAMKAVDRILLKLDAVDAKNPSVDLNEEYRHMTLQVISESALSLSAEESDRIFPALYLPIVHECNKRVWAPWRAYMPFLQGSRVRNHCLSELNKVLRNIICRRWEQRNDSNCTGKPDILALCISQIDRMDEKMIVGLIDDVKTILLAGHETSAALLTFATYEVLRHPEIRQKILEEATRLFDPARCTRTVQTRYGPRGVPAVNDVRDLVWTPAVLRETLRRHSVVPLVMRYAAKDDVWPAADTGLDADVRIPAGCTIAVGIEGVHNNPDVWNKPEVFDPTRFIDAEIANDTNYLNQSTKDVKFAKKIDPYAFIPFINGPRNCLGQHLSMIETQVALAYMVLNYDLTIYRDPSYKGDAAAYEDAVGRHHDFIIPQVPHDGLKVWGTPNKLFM

Assay [2] has as its system multiple strains of L. donovani and L. infantum promastigotes. As to conditions: 1 μg/mL; cited from earlier work.
The test system of assay [3] is L. donovani LV82 promastigotes. The assay is described as follows: microbe, parasite or virus in culture. As to conditions: Leishmania donovani, 72 h, read-out: EC50 (L. donovani).
For assay [4], the target named is T2, LdCYP51 (Leishmania donovani, UniProt A0A3S7WRS7). Put plainly: biochemical.
The target in assay [5] is T1, LdCYP5122A1. The assay is described as follows: biochemical. As to conditions: for inhibition at 100 µM: read-out: % inhibition of CYP5122A1 at 100 μM.
The subject of assay [6] is intracellular amastigotes of L. infantum. As to conditions: cited from earlier work; for EC50: read-out: EC50, elimination of intracellular amastigotes of L. infantum.
The subject of assay [7] is sterol profile of LV82 promastigotes. The assay is described as follows: LC-MS/MS sterol analysis of inhibitor-treated LV82 promastigotes. The format is cell-based, Leishmania donovani. Conditions: 50 μM voriconazole vs. DMSO, 24 hr.
Assay [8] has as its system intracellular L. major and L. amazonensis. As to conditions: 10 μM; cited from earlier work.
The target of assay [9] is L. donovani CYP51 (Leishmania donovani, UniProt A0A3S7WRS7). Put plainly: UV-Vis difference binding spectra of ligands with purified recombinant CYP51.
Assay [10] concerns the target T2, LdCYP51.
The target of assay [11] is T3, L. donovani CYP5122A1 (Leishmania donovani, UniProt A0A3S7X0B6).
T3 sequence (A0A3S7X0B6 61-592): T1 sequence (A0A3S7X0B6 61-592)
The assay is described as follows: UV-Vis difference binding spectra of ligands with purified recombinant CYP5122A1.

The test system of assay [12] is intracellular amastigotes. Conditions: ref Wang et al. (ref. 45); cited from earlier work.
Assay [13] concerns L. donovani strain 1S2D promastigotes (Ld1S WT and CYP5122A1 mutants). Put plainly: microbe, parasite or virus in culture. Conditions: Leishmania donovani, 48 h.
For assay [14], the system named is L. donovani LV82 promastigote cultures. Put plainly: Microscopic counts of LV82 promastigote cultures. Type of assay: cell-based, Leishmania donovani. Conditions: LV82 promastigotes, cell counts daily for three days.
Assay [15] has as its system intracellular L. donovani parasites. The assay is described as follows: Intracellular L. donovani in infected peritoneal macrophage assay. Type of assay: cell-based, Leishmania donovani. Conditions: Supplementary Fig. 12.
Assay [16] concerns L. donovani strain 1S2D promastigotes (Ld1S WT and CYP5122A1 mutants). Conditions: 48 hours; for EC50: read-out: EC50, promastigote growth.

L. donovani CYP51, sequence (A0A3S7WRS7 32-480): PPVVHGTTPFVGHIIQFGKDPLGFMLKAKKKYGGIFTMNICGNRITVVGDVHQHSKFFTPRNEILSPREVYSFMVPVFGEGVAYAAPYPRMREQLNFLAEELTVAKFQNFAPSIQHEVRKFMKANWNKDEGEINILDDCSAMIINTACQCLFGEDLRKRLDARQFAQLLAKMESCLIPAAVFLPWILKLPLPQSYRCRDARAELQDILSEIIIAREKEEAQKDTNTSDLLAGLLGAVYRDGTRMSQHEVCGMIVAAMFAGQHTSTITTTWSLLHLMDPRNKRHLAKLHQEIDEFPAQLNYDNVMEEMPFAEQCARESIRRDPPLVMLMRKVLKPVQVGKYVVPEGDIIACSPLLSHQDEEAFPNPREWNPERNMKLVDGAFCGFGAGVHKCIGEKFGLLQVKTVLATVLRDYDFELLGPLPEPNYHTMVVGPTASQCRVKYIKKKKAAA
T2 sequence (A0A3S7WRS7 32-480): as above

What is called IC50 is the concentration at which inhibition is half-maximal. Consider `CCC(C)n1ncn(-c2ccc(N3CCN(c4ccc(OCC5COC(Cn6cncn6)(c6ccc(Cl)cc6Cl)O5)cc4)CC3)cc2)c1=O` (centres unmarked) [Itraconazole], for which the “SI (selectivity index) = IC50 against LdCYP5122A1/IC50 against LdCYP51” value (shortened to “SI (selectivity index) = IC50”) in assay [1] is 43. Moreover, in assay [2], the “Growth compared with control” value is under 20%. Moreover, the EC50 in assay [3] is 6 ± 1.1 µM. Moreover, the values for the IC50 in [4] and in assay [5] were 0.049 ± 0.009 µM and 2.1 ± 0.4 µM, respectively.
As for `Clc1ccc(C(Cn2ccnc2)OCc2ccsc2Cl)c(Cl)c1` (centres unmarked) [Tioconazole], the “SI (selectivity index) = IC50” value in assay [1] came out at 20. For the same molecule, the EC50 is 4 ± 0.2 µM in assay [6] and 9.5 ± 0.6 µM in assay [3]. The IC50 in [4] is 0.054 ± 0.008 µM; in [5], 1.1 ± 0.2 µM.
What is called inhibition is the share of the control response that was lost under treatment. `C[C@@H](c1ncncc1F)[C@](O)(Cn1cncn1)c1ccc(F)cc1F` [Voriconazole]: the “SI (selectivity index) = IC50” value in assay [1] is recorded as over 1176. Besides, in assay [6], the “EC50, elimination of intracellular amastigotes of L. infantum” value was “failed”. Besides, in assay [7], the “4,14-Dimethylzymosterol level normalized to DMSO-treated parasites” value is given as 17 ± 2, the “4CH2OH-LS level normalized to DMSO-treated parasites” value was 0.83 ± 0.09, the “5-Dehydroepisterol level normalized to DMSO-treated parasites” value turned out to be 0.078 ± 0.043 and the “7-Dehydrodesmosterol level normalized to DMSO-treated parasites” value is given as 0^d,**. In assay [7], the “14-Methylfecosterol level normalized to DMSO-treated parasites” value is “Accumulated^a,***”, the “14-Methylzymosterol level normalized to DMSO-treated parasites” value turned out to be 8.0 ± 1.0, the “Cholesterol (exogenous) level normalized to DMSO-treated parasites” value turned out to be 0.88 ± 0.07 and the “Ergosta-5,7-dienol level normalized to DMSO-treated parasites” value is listed as 0.39 ± 0.11. Also, in [7], the “Ergostatetraenol level normalized to DMSO-treated parasites” value was 0.086 ± 0.027, the “Ergosterol level normalized to DMSO-treated parasites” value was determined as 0.30 ± 0.08, the “FF-MAS level normalized to DMSO-treated parasites” value is on record as “Not detected” and the “Lanosterol level normalized to DMSO-treated parasites” value turned out to be 1.6 ± 0.2. The “T-MAS level normalized to DMSO-treated parasites” value in [7] is listed as “Not detected”. In addition, the “Zymosterol level normalized to DMSO-treated parasites” value in assay [7] (not separated from cholesta-7,24-dienol) is listed as 0.067 ± 0.034. For the same molecule, the “4-Methylzymosterol level normalized to DMSO-treated parasites” value in assay [7] (not separated from episterol and fecosterol) turned out to be 0.18 ± 0.06. For the same molecule, in assay [8], the “Inhibition of intracellular parasites” value is reported as under 50%. The “Binding mode with CYP51 (difference binding spectrum)” value in assay [9] is listed as “type II binding”. Also, the “Selectivity for CYP51 over CYP5122A1” value in assay [10] is over 1176 fold. Moreover, the EC50 in [3] is over 100 µM. Moreover, in assay [11], the “Binding mode with CYP5122A1 (difference binding spectrum)” value was “no specific responses”. Further, half-maximal inhibition in assay [4] (IC50) was put at 0.085 ± 0.017 µM. Moreover, in [5], the IC50 is over 100 µM and the inhibition at 100 µM is under 28%.
Regarding `OC(Cn1cncn1)(Cn1cncn1)c1ccc(F)cc1F` [Fluconazole], the “Growth compared with control” value in assay [2] was over 80%. In addition, the “Inhibition of intracellular parasites” value in [8] is on record as under 50%. Besides, in assay [9], the “Binding mode with CYP51 (difference binding spectrum)” value was “type II binding”. Further, the “Binding mode with CYP5122A1 (difference binding spectrum)” value in assay [11] is listed as “no specific responses”. Also, in assay [5], the IC50 is over 100 µM and the inhibition at 100 µM is under 20%.
In the case of `NC[C@@H]1O[C@H](O[C@H]2[C@@H](O)[C@H](O[C@@H]3[C@@H](O)[C@H](N)C[C@H](N)[C@H]3O[C@H]3O[C@H](CO)[C@@H](O)[C@H](O)[C@H]3N)O[C@@H]2CO)[C@H](N)[C@@H](O)[C@@H]1O` [Paromomycin], in [12], the “IC50 vs. intracellular amastigotes (printed in column EC50 (L. donovani))” value (shortened to “IC50 vs. intracellular amastigotes”) is given as >50^e μM.
In the case of `CC(=O)N1CCN(c2ccc(OCC3COC(Cn4ccnc4)(c4ccc(Cl)cc4Cl)O3)cc2)CC1` (centres unmarked) [Ketoconazole], the “SI (selectivity index) = IC50” value in [1] came to 8.7. In [2], the “Growth compared with control” value is on record as under 20%. Further, the EC50 in assay [3] was determined as 22 ± 6 µM. Moreover, in [5], the half-maximal inhibitory concentration (IC50) is 0.42 ± 0.05 µM.
As to `CCCCCCCCCCCCCCCCOP(=O)([O-])OCC[N+](C)(C)C` [Miltefosine], the “SI (selectivity index) = IC50” value in [1] came out at 3.5. Further, the “IC50 vs. intracellular amastigotes” value in [12] is on record as 2.7^e μM. For the same molecule, the IC50 in assay [4] was determined as 12 ± 1 µM; in [5], 43 ± 1 µM.
As to `CC[C@@H]([C@H](C)O)n1ncn(-c2ccc(N3CCN(c4ccc(OC[C@@H]5CO[C@@](Cn6cncn6)(c6ccc(F)cc6F)C5)cc4)CC3)cc2)c1=O` [Posaconazole], the EC50 is 0.1 µM in assay [13] (read-out: Concentration sufficient to reach EC50) and about 25 µM in [13] (read-out: EC50, promastigote growth). Also, the “Leishmanicidal vs. leishmanistatic effect” value in [14] is “leishmanistatic effect”. In addition, the “Binding mode with CYP51 (difference binding spectrum)” value in assay [9] is listed as “type II binding”. Further, the “Binding mode with CYP5122A1 (difference binding spectrum)” value in assay [11] is reported as “type II-like binding”. In addition, in assay [15], the “Effect on intracellular L. donovani parasites” value is “more effective than fluconazole”. Besides, the “Concentration needed to inhibit growth further” value in [16] (Ld1S WT, bi-phasic response) is recorded as “more than 12 μM”.
`CC(C)Oc1cc(NC(=N)c2ccccn2)ccc1-c1ccc(-c2ccc(NC(=N)c3ccccn3)cc2OC(C)C)o1` [DB766]: the “Selectivity for CYP5122A1 over CYP51” value in assay [1] is over 30 fold. In [1] (read-out: IC50 (LdCYP5122A1), mean ± standard deviation (n = 3)), the IC50 is 1 ± 0.1 µM. For the same molecule, the “IC50 vs. intracellular amastigotes” value in [12] is given as 0.036^f μM. Further, the “% inhibition of LdCYP51 at 30 μM” value in [10] (30 μM) is under 30% inhibition at 30 μM. The EC50 was about 0.012 µM in assay [16] (CYP5122A1 overexpressors); 0.001 to 0.004 µM in [16] (WT and Ld22A1 + /‒).
Consider `Clc1ccc(C(Cn2ccnc2)OCc2ccc(Sc3ccccc3)cc2)c(Cl)c1` (centres unmarked) [Fenticonazole], for which, in assay [1], the “SI (selectivity index) = IC50” value turned out to be 8.0. Also, the EC50 in assay [6] is 2.9 ± 0.3 µM; in assay [3], 5.6 ± 0.3 µM. The IC50 in assay [4] was 0.081 ± 0.002 µM; in assay [5], 0.65 ± 0.08 µM.
